Assay results as given in publication PMC7419507, “In vitro Cas9-assisted editing of modular polyketide synthase genes to produce desired natural product derivatives” (Nature Communications, 2020).
Several values for one entry are separate records, joined by “and”; a condition that tells them apart may be missing. Equal entries are not always repeated.

Tests used:
Assay type in all cases: cell-based
[1] = Cytotoxicity assay (CellTiter-Glo, 72 h), Jurkat; details: human, Jurkat cells (T lymphoma), raw data (replicates)
Outline: (§1)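 1000 cells/well; 4 h settle, then 2-fold serial dilutions (0.5% DMSO final), 72 h, 37 °C/5% CO2. Read-out: CellTiter-Glo luminescence. Media: RPMI1640 + 10% FBS (Jurkat, MESO-1; Jurkat also Glutamax), DMEM + 10% FBS (SKOV-3).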

[2] = tested on: T lymphoma Jurkat cells; test: Cytotoxicity assay (CellTiter-Glo, 72 h), Jurkat; details: raw data (replicates)
Outline: as §1

[3] = tested on: Jurkat, SKOV-3 and MESO-1 cells; test: Cytotoxicity assay, statements for all tested cell lines together; details: Jurkat, SKOV-3 and MESO-1 cells, 72 h
Outline: as §1

[4] = Cytotoxicity assay (CellTiter-Glo, 72 h), MESO-1; details: human, MESO-1 malignant pleural mesothelioma cells, raw replicate data, read-out: MESO1 viability (%)
Outline: as §1

With `COC1CC2CCC(C)C(O)(O2)C(=O)C(=O)N2CCCCC2C(=O)OC(C(C)CC2CCC(O)C(OC)C2)CC(O)CC(=O)C(C)C=C(C)C(O)CC(=O)C(C)CC(C)C=CC=CC=C1C` (stereo not drawn) [Compound 13] as the molecule, how does the viability at 72 h, 9.53674e-05 uM ([1]; conc 9.53674e-5 uM) read?
Its viability at 72 h, 9.53674e-05 uM is 100%.

And the viability at 72 h, 0.000190735 uM ([1]; conc 0.000190735 uM)?
The viability at 72 h, 0.000190735 uM was 100%.

And the viability at 72 h, 0.00038147 uM ([1]; conc 0.00038147 uM)?
Its viability at 72 h, 0.00038147 uM is 108%.

What about the viability at 72 h, 0.000762939 uM ([1]; conc 0.000762939 uM) of the same molecule?
Its viability at 72 h, 0.000762939 uM is 103%.

What about the viability at 72 h, 0.00152588 uM ([1]; conc 0.00152588 uM) of the same molecule?
The viability at 72 h, 0.00152588 uM was 98.1%.

And the viability at 72 h, 0.00305176 uM ([1]; conc 0.00305176 uM)?
The viability at 72 h, 0.00305176 uM was 102%.

What about the viability at 72 h, 0.00610352 uM ([1]; conc 0.00610352 uM) of the same molecule?
The viability at 72 h, 0.00610352 uM was 100%.

And the viability at 72 h, 0.012207 uM ([1]; conc 0.012207 uM)?
The viability at 72 h, 0.012207 uM was 99.4%.

And the viability at 72 h, 0.0244141 uM ([1]; conc 0.0244141 uM)?
Its viability at 72 h, 0.0244141 uM is 103%.

And the viability at 72 h, 0.0488281 uM ([1]; conc 0.0488281 uM)?
The viability at 72 h, 0.0488281 uM was 91.3%.

And the viability at 72 h, 0.0976562 uM ([1]; conc 0.0976562 uM)?
The viability at 72 h, 0.0976562 uM was 69.5%.

And the viability at 72 h, 0.195312 uM ([1]; conc 0.195312 uM)?
Its viability at 72 h, 0.195312 uM is 47.2%.

What about the viability at 72 h, 0.390625 uM ([1]; conc 0.390625 uM) of the same molecule?
The viability at 72 h, 0.390625 uM was 37.5%.

What about the viability at 72 h, 0.78125 uM ([1]; conc 0.78125 uM) of the same molecule?
Its viability at 72 h, 0.78125 uM is 31.7%.

And the viability at 72 h, 1.5625 uM ([1]; conc 1.5625 uM)?
The viability at 72 h, 1.5625 uM was 30.7%.

What about the viability at 72 h, 3.125 uM ([1]; conc 3.125 uM) of the same molecule?
Its viability at 72 h, 3.125 uM is 30.2%.

And the viability at 72 h, 6.25 uM ([1]; conc 6.25 uM)?
The viability at 72 h, 6.25 uM was 29.2%.

What about the viability at 72 h, 12.5 uM ([1]; conc 12.5 uM) of the same molecule?
The viability at 72 h, 12.5 uM was 30.8%.

And the viability at 72 h, 25 uM ([1]; conc 25 uM)?
The viability at 72 h, 25 uM was 24.7%.

What about the viability at 72 h, 50 uM ([1]; conc 50 uM) of the same molecule?
Its viability at 72 h, 50 uM is 2.2%.

And the “Jurkat viability (%)” value ([2]; conc 9.53674e-5 uM)?
Its value is 112.6% and 105.4%.

And the “Jurkat viability (%)” value ([2]; conc 0.000190735 uM)?
The value was 101.3% and 101.6%.

What about the “Jurkat viability (%)” value ([2]; conc 0.00038147 uM) of the same molecule?
The value was 104.4% and 104.8%.

What about the “Jurkat viability (%)” value ([2]; conc 0.000762939 uM) of the same molecule?
Its value is 96.6% and 102.2%.

What about the “Jurkat viability (%)” value ([2]; conc 0.00152588 uM) of the same molecule?
The value was 101.0% and 107.9%.

What about the “Jurkat viability (%)” value ([2]; conc 0.00305176 uM) of the same molecule?
Its value is 103.0% and 101.6%.

What about the “Jurkat viability (%)” value ([2]; conc 0.00610352 uM) of the same molecule?
Its value is 107.7% and 103.5%.

What about the “Jurkat viability (%)” value ([2]; conc 0.012207 uM) of the same molecule?
Its value is 102.1% and 101.9%.

And the “Jurkat viability (%)” value ([2]; conc 0.0244141 uM)?
The value was 102.7% and 105.0%.

What about the “Jurkat viability (%)” value ([2]; conc 0.0488281 uM) of the same molecule?
Its value is 92.1% and 89.3%.

What about the “Jurkat viability (%)” value ([2]; conc 0.0976562 uM) of the same molecule?
The value was 67.5% and 74.1%.

And the “Jurkat viability (%)” value ([2]; conc 0.195312 uM)?
The value was 42.7% and 42.9%.

What about the “Jurkat viability (%)” value ([2]; conc 0.390625 uM) of the same molecule?
Its value is 37.1% and 36.6%.

What about the “Jurkat viability (%)” value ([2]; conc 0.78125 uM) of the same molecule?
The value was 31.2% and 32.9%.

And the “Jurkat viability (%)” value ([2]; conc 1.5625 uM)?
Its value is 32.3%.

What about the “Jurkat viability (%)” value ([2]; conc 3.125 uM) of the same molecule?
The value was 28.8% and 27.1%.

And the “Jurkat viability (%)” value ([2]; conc 6.25 uM)?
The value was 32.0% and 30.5%.

What about the “Jurkat viability (%)” value ([2]; conc 12.5 uM) of the same molecule?
Its value is 29.9%.

What about the “Jurkat viability (%)” value ([2]; conc 25 uM) of the same molecule?
The value was 25.3% and 24.9%.

What about the “Jurkat viability (%)” value ([2]; conc 50 uM) of the same molecule?
The value was 1.7% and 1.8%.

And the “Effect on cell viability, in words” value [3]?
The value was “slightly suppressed the cell viabilities”.

What about the viability at 72 h, 9.53674e-05 uM ([4]; conc 9.53674e-5 uM) of the same molecule?
Its viability at 72 h, 9.53674e-05 uM is 107%.

And the viability at 72 h, 0.000190735 uM ([4]; conc 0.000190735 uM)?
The viability at 72 h, 0.000190735 uM was 109%.

What about the viability at 72 h, 0.00038147 uM ([4]; conc 0.00038147 uM) of the same molecule?
Its viability at 72 h, 0.00038147 uM is 103%.

And the viability at 72 h, 0.000762939 uM ([4]; conc 0.000762939 uM)?
The viability at 72 h, 0.000762939 uM was 96.5%.

And the viability at 72 h, 0.00152588 uM ([4]; conc 0.00152588 uM)?
The viability at 72 h, 0.00152588 uM was 103%.

And the viability at 72 h, 0.00305176 uM ([4]; conc 0.00305176 uM)?
Its viability at 72 h, 0.00305176 uM is 101%.

What about the viability at 72 h, 0.00610352 uM ([4]; conc 0.00610352 uM) of the same molecule?
The viability at 72 h, 0.00610352 uM was 108%.

What about the viability at 72 h, 0.012207 uM ([4]; conc 0.012207 uM) of the same molecule?
Its viability at 72 h, 0.012207 uM is 101%.

What about the viability at 72 h, 0.0244141 uM ([4]; conc 0.0244141 uM) of the same molecule?
Its viability at 72 h, 0.0244141 uM is 95.9%.

What about the viability at 72 h, 0.0488281 uM ([4]; conc 0.0488281 uM) of the same molecule?
The viability at 72 h, 0.0488281 uM was 92.5%.

And the viability at 72 h, 0.0976562 uM ([4]; conc 0.0976562 uM)?
Its viability at 72 h, 0.0976562 uM is 82%.

And the viability at 72 h, 0.195312 uM ([4]; conc 0.195312 uM)?
The viability at 72 h, 0.195312 uM was 74.6%.

And the viability at 72 h, 0.390625 uM ([4]; conc 0.390625 uM)?
Its viability at 72 h, 0.390625 uM is 77.6%.

And the viability at 72 h, 0.78125 uM ([4]; conc 0.78125 uM)?
Its viability at 72 h, 0.78125 uM is 68.5%.

And the viability at 72 h, 1.5625 uM ([4]; conc 1.5625 uM)?
Its viability at 72 h, 1.5625 uM is 71.4%.

What about the viability at 72 h, 3.125 uM ([4]; conc 3.125 uM) of the same molecule?
The viability at 72 h, 3.125 uM was 70.6%.

And the viability at 72 h, 6.25 uM ([4]; conc 6.25 uM)?
The viability at 72 h, 6.25 uM was 68.1%.

And the viability at 72 h, 12.5 uM ([4]; conc 12.5 uM)?
Its viability at 72 h, 12.5 uM is 69.4%.

What about the viability at 72 h, 25 uM ([4]; conc 25 uM) of the same molecule?
Its viability at 72 h, 25 uM is 61.7%.
